Laboratory results from patent US7560609B2, “Diabetic model” (priority 2001, dated 2009).

Assay: Insulin sensitivity test
Type: in vivo, bank voles
Conditions: 60 minutes following insulin
Protocol: In the Group A bank voles (n=101), four female animals were found positive for glucosuria and blood glucose values of 215, 302, 313 and 340 mg/dl, respectively, In the remaining bank voles, the mean blood glucose±S.D. was normally distributed at 101±28 mg/dl. The body weight of the trapped voles from group A ranged from 8.5-28.4 g, the mean value±S.D. was 19±5 g. Occasional hyperglycemic and glucosuric bank voles may therefore be trapped in the wild. Whether these four animals had stress-induced hyperglycemia or overt diabetes remains to be established. […] As many as 18/22 (82%) had ketones and were polydipsic. […] We therefore next examined the pancreas histology in non-diabetic and diabetic bank voles to test if the classification of type 1 diabetes was supported by a loss of beta cells.

Substance: Actrapid: insulin (Actrapid, Novo Nordisk, Copenhagen, Denmark) used in the insulin sensitivity test
- decrease in blood glucose (eight animals with blood glucose <120 mg/dl): 40%
- decrease in blood glucose (four animals with blood glucose at 120-200 mg/dl): 60%
- decrease in blood glucose (four animals with blood glucose levels above 200 mg/dl): 30%
